Experimental data: patent US9113629B2, “4-amino-6-(4-substituted-phenyl)-picolinates and 6-amino-2-(4-substituted-phenyl)-pyrimidine-4-carboxylates and their use as herbicides” (DOW AGROSCIENCES LLC, priority 2013, dated 2015)

System: Key Grass and Sedge Weeds as well as Grass Crops
Assay: Post-emergent Test II herbicidal activity (Table 6)
Format: in vivo
Conditions: Triticum aestivum, post-emergence, 336 h, TRZSS (wheat), application rate 70 g ai/ha, read-out: Visual Growth Reduction (%) 14 Days After Application, TRZSS
Procedure, shortened: (§1)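 Plants grown in Metro-Mix 360 (pH 6.0–6.8) in a greenhouse (~15 h photoperiod, 23–29 °C day) to first or second true leaf stage, then sprayed with compound in acetone/DMSO/aqueous crop-oil-surfactant carrier at 187 L/ha by track sprayer. Injury visually scored 0–100% versus untreated plants after 14 d.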

Row | Compound | pest or weed control at 70 g/ha [%]
1 | C=Cc1c(C(=O)O)nc(-c2ccc(C(F)(F)F)c(F)c2F)c(F)c1N [Compound 61] | 30 to 44

Same assay, conditions: Triticum aestivum, post-emergence, 336 h, TRZSS (wheat), application rate 140 g ai/ha, read-out: Visual Growth Reduction (%) 14 Days After Application, TRZSS

Row | Compound | pest or weed control at 140 g/ha [%]
2 | C=Cc1c(C(=O)O)nc(-c2ccc(C(F)(F)F)c(F)c2F)c(F)c1N [Compound 61] | 30 to 44

Same assay, conditions: post-emergence, 336 h, CYPES: yellow nutsedge (Cyperus esculentus), application rate 70 g ai/ha, read-out: Visual Growth Reduction (%) 14 Days After Application, CYPES

Row | Compound | pest or weed control at 70 g/ha [%]
3 | C=Cc1c(C(=O)O)nc(-c2ccc(C(F)(F)F)c(F)c2F)c(F)c1N [Compound 61] | 45 to 59

Same assay, conditions: post-emergence, 336 h, CYPES: yellow nutsedge (Cyperus esculentus), application rate 140 g ai/ha, read-out: Visual Growth Reduction (%) 14 Days After Application, CYPES

Row | Compound | pest or weed control at 140 g/ha [%]
4 | C=Cc1c(C(=O)O)nc(-c2ccc(C(F)(F)F)c(F)c2F)c(F)c1N [Compound 61] | 45 to 59

Same assay, conditions: post-emergence, 336 h, DIGSA: crabgrass (Digitaria sanguinalis), application rate 70 g ai/ha, read-out: Visual Growth Reduction (%) 14 Days After Application, DIGSA

Row | Compound | pest or weed control at 70 g/ha [%]
5 | C=Cc1c(C(=O)O)nc(-c2ccc(C(F)(F)F)c(F)c2F)c(F)c1N [Compound 61] | 0 to 29

Same assay, conditions: post-emergence, 336 h, DIGSA: crabgrass (Digitaria sanguinalis), application rate 140 g ai/ha, read-out: Visual Growth Reduction (%) 14 Days After Application, DIGSA

Row | Compound | pest or weed control at 140 g/ha [%]
6 | C=Cc1c(C(=O)O)nc(-c2ccc(C(F)(F)F)c(F)c2F)c(F)c1N [Compound 61] | 0 to 29

Same assay, conditions: post-emergence, 336 h, ECHCG: barnyardgrass (Echinochloa crus-galli), application rate 70 g ai/ha, read-out: Visual Growth Reduction (%) 14 Days After Application, ECHCG

Row | Compound | pest or weed control at 70 g/ha [%]
7 | C=Cc1c(C(=O)O)nc(-c2ccc(C(F)(F)F)c(F)c2F)c(F)c1N [Compound 61] | 45 to 59

Same assay, conditions: post-emergence, 336 h, ECHCG: barnyardgrass (Echinochloa crus-galli), application rate 140 g ai/ha, read-out: Visual Growth Reduction (%) 14 Days After Application, ECHCG

Row | Compound | pest or weed control at 140 g/ha [%]
8 | C=Cc1c(C(=O)O)nc(-c2ccc(C(F)(F)F)c(F)c2F)c(F)c1N [Compound 61] | 60 to 74

Same assay, conditions: post-emergence, 336 h, ORYSA: rice (Oryza sativa), application rate 70 g ai/ha, read-out: Visual Growth Reduction (%) 14 Days After Application, ORYSA

Row | Compound | pest or weed control at 70 g/ha [%]
9 | C=Cc1c(C(=O)O)nc(-c2ccc(C(F)(F)F)c(F)c2F)c(F)c1N [Compound 61] | 0 to 29

Same assay, conditions: post-emergence, 336 h, ORYSA: rice (Oryza sativa), application rate 140 g ai/ha, read-out: Visual Growth Reduction (%) 14 Days After Application, ORYSA

Row | Compound | pest or weed control at 140 g/ha [%]
10 | C=Cc1c(C(=O)O)nc(-c2ccc(C(F)(F)F)c(F)c2F)c(F)c1N [Compound 61] | 0 to 29

Same assay, conditions: post-emergence, 336 h, SETFA: giant foxtail (Setaria faberi), application rate 70 g ai/ha, read-out: Visual Growth Reduction (%) 14 Days After Application, SETFA

Row | Compound | pest or weed control at 70 g/ha [%]
11 | C=Cc1c(C(=O)O)nc(-c2ccc(C(F)(F)F)c(F)c2F)c(F)c1N [Compound 61] | 0 to 29

Same assay, conditions: post-emergence, 336 h, SETFA: giant foxtail (Setaria faberi), application rate 140 g ai/ha, read-out: Visual Growth Reduction (%) 14 Days After Application, SETFA

Row | Compound | pest or weed control at 140 g/ha [%]
12 | C=Cc1c(C(=O)O)nc(-c2ccc(C(F)(F)F)c(F)c2F)c(F)c1N [Compound 61] | 0 to 29

Same assay, conditions: post-emergence, 336 h, SORVU: grain sorghum (Sorghum vulgare), application rate 70 g ai/ha, read-out: Visual Growth Reduction (%) 14 Days After Application, SORVU

Row | Compound | pest or weed control at 70 g/ha [%]
13 | C=Cc1c(C(=O)O)nc(-c2ccc(C(F)(F)F)c(F)c2F)c(F)c1N [Compound 61] | 45 to 59

Same assay, conditions: post-emergence, 336 h, SORVU: grain sorghum (Sorghum vulgare), application rate 140 g ai/ha, read-out: Visual Growth Reduction (%) 14 Days After Application, SORVU

Row | Compound | pest or weed control at 140 g/ha [%]
14 | C=Cc1c(C(=O)O)nc(-c2ccc(C(F)(F)F)c(F)c2F)c(F)c1N [Compound 61] | 60 to 74

Same assay, conditions: post-emergence, 336 h, ZEAMX: maize, corn (Zea mays), application rate 70 g ai/ha, read-out: Visual Growth Reduction (%) 14 Days After Application, ZEAMX

Row | Compound | pest or weed control at 70 g/ha [%]
15 | C=Cc1c(C(=O)O)nc(-c2ccc(C(F)(F)F)c(F)c2F)c(F)c1N [Compound 61] | 60 to 74

Same assay, conditions: post-emergence, 336 h, ZEAMX: maize, corn (Zea mays), application rate 140 g ai/ha, read-out: Visual Growth Reduction (%) 14 Days After Application, ZEAMX

Row | Compound | pest or weed control at 140 g/ha [%]
16 | C=Cc1c(C(=O)O)nc(-c2ccc(C(F)(F)F)c(F)c2F)c(F)c1N [Compound 61] | 60 to 74

System: Key Broadleaf Weed and Crop Species
Assay: Post-emergent Test II herbicidal activity (Table 5)
Format: in vivo
Conditions: post-emergence, 336 h; ABUTH: velvetleaf (Abutilon theophrasti); 70 g ai/ha; post-emergent; 14 days after application; read-out: Visual Growth Reduction (%) 14 Days After Application ABUTH
Procedure, shortened: as §1

Row | Compound | pest or weed control at 70 g/ha [%]
17 | C=Cc1c(C(=O)O)nc(-c2ccc(C(F)(F)F)c(F)c2F)c(F)c1N [Compound 61] | 85 to 94

Same assay, conditions: post-emergence, 336 h; ABUTH: velvetleaf (Abutilon theophrasti); 140 g ai/ha; post-emergent; 14 days after application; read-out: Visual Growth Reduction (%) 14 Days After Application ABUTH

Row | Compound | pest or weed control at 140 g/ha [%]
18 | C=Cc1c(C(=O)O)nc(-c2ccc(C(F)(F)F)c(F)c2F)c(F)c1N [Compound 61] | 95 to 100

Same assay, conditions: post-emergence, 336 h; AMARE: redroot pigweed (Amaranthus retroflexus); 70 g ai/ha; post-emergent; 14 days after application; read-out: Visual Growth Reduction (%) 14 Days After Application AMARE

Row | Compound | pest or weed control at 70 g/ha [%]
19 | C=Cc1c(C(=O)O)nc(-c2ccc(C(F)(F)F)c(F)c2F)c(F)c1N [Compound 61] | 95 to 100

Same assay, conditions: post-emergence, 336 h; AMARE: redroot pigweed (Amaranthus retroflexus); 140 g ai/ha; post-emergent; 14 days after application; read-out: Visual Growth Reduction (%) 14 Days After Application AMARE

Row | Compound | pest or weed control at 140 g/ha [%]
20 | C=Cc1c(C(=O)O)nc(-c2ccc(C(F)(F)F)c(F)c2F)c(F)c1N [Compound 61] | 95 to 100

Same assay, conditions: post-emergence, 336 h; BRSNN: oilseed-rape, canola (Brassica napus); 70 g ai/ha; post-emergent; 14 days after application; read-out: Visual Growth Reduction (%) 14 Days After Application BRSNN

Row | Compound | pest or weed control at 70 g/ha [%]
21 | C=Cc1c(C(=O)O)nc(-c2ccc(C(F)(F)F)c(F)c2F)c(F)c1N [Compound 61] | 0 to 29

Same assay, conditions: post-emergence, 336 h; BRSNN: oilseed-rape, canola (Brassica napus); 140 g ai/ha; post-emergent; 14 days after application; read-out: Visual Growth Reduction (%) 14 Days After Application BRSNN

Row | Compound | pest or weed control at 140 g/ha [%]
22 | C=Cc1c(C(=O)O)nc(-c2ccc(C(F)(F)F)c(F)c2F)c(F)c1N [Compound 61] | 0 to 29

Same assay, conditions: post-emergence, 336 h; CHEAL: lambsquarters (Chenopodium album); 70 g ai/ha; post-emergent; 14 days after application; read-out: Visual Growth Reduction (%) 14 Days After Application CHEAL

Row | Compound | pest or weed control at 70 g/ha [%]
23 | C=Cc1c(C(=O)O)nc(-c2ccc(C(F)(F)F)c(F)c2F)c(F)c1N [Compound 61] | 75 to 84

Same assay, conditions: post-emergence, 336 h; CHEAL: lambsquarters (Chenopodium album); 140 g ai/ha; post-emergent; 14 days after application; read-out: Visual Growth Reduction (%) 14 Days After Application CHEAL

Row | Compound | pest or weed control at 140 g/ha [%]
24 | C=Cc1c(C(=O)O)nc(-c2ccc(C(F)(F)F)c(F)c2F)c(F)c1N [Compound 61] | 85 to 94

Same assay, conditions: post-emergence, 336 h; EPHHL: wild poinsettia (Euphorbia heterophylla); 70 g ai/ha; post-emergent; 14 days after application; read-out: Visual Growth Reduction (%) 14 Days After Application EPHHL

Row | Compound | pest or weed control at 70 g/ha [%]
25 | C=Cc1c(C(=O)O)nc(-c2ccc(C(F)(F)F)c(F)c2F)c(F)c1N [Compound 61] | 95 to 100

Same assay, conditions: post-emergence, 336 h; EPHHL: wild poinsettia (Euphorbia heterophylla); 140 g ai/ha; post-emergent; 14 days after application; read-out: Visual Growth Reduction (%) 14 Days After Application EPHHL

Row | Compound | pest or weed control at 140 g/ha [%]
26 | C=Cc1c(C(=O)O)nc(-c2ccc(C(F)(F)F)c(F)c2F)c(F)c1N [Compound 61] | 95 to 100

Same assay, conditions: post-emergence, 336 h; HELAN: sunflower (Helianthus annuus); 70 g ai/ha; post-emergent; 14 days after application; read-out: Visual Growth Reduction (%) 14 Days After Application HELAN

Row | Compound | pest or weed control at 70 g/ha [%]
27 | C=Cc1c(C(=O)O)nc(-c2ccc(C(F)(F)F)c(F)c2F)c(F)c1N [Compound 61] | 95 to 100

Same assay, conditions: post-emergence, 336 h; HELAN: sunflower (Helianthus annuus); 140 g ai/ha; post-emergent; 14 days after application; read-out: Visual Growth Reduction (%) 14 Days After Application HELAN

Row | Compound | pest or weed control at 140 g/ha [%]
28 | C=Cc1c(C(=O)O)nc(-c2ccc(C(F)(F)F)c(F)c2F)c(F)c1N [Compound 61] | 95 to 100

Same assay, conditions: post-emergence, 336 h; VIOTR: wild pansy (Viola tricolor); 70 g ai/ha; post-emergent; 14 days after application; read-out: Visual Growth Reduction (%) 14 Days After Application VIOTR

Row | Compound | pest or weed control at 70 g/ha [%]
29 | C=Cc1c(C(=O)O)nc(-c2ccc(C(F)(F)F)c(F)c2F)c(F)c1N [Compound 61] | 0 to 29

Same assay, conditions: post-emergence, 336 h; VIOTR: wild pansy (Viola tricolor); 140 g ai/ha; post-emergent; 14 days after application; read-out: Visual Growth Reduction (%) 14 Days After Application VIOTR

Row | Compound | pest or weed control at 140 g/ha [%]
30 | C=Cc1c(C(=O)O)nc(-c2ccc(C(F)(F)F)c(F)c2F)c(F)c1N [Compound 61] | 0 to 29
